Laboratory results: ChEMBL document CHEMBL5518165, “M335, a novel small-molecule STING agonist activates the immune response and exerts antitumor effects” (Eur J Med Chem, 2024)
Calls of active or inactive are those of the source. The rule behind the calls is not given here.

Experiments:
[1] = biological target: Stimulator of interferon genes protein (Homo sapiens) (UniProt Q86WV6); experiment: Agonist activity at STING in human THP-1 cells assessed as increase in IRF3 phosphorylation incubated for 4 hrs by Western blotting analysis; assay type: cell-based; settings: filed as agonist, dose 5-40 µM
[2] = biological target: Stimulator of interferon genes protein (Homo sapiens) (UniProt Q86WV6); experiment: Agonist activity at STING in human THP-1 cells assessed as increase in IRF3 phosphorylation at 20 uM measured for 4 hrs by Western blotting analysis; assay type: cell-based; settings: filed as agonist
[3] = Toxicity in C57/BL6 mouse allografted with mouse B16-F10 cells assessed as change in body weight at 300 ug, IT administered every 2 days; assay type: cell-based; settings: in vivo, other, 48 h, dose 300 µg
[4] = biological target: Stimulator of interferon genes protein (Homo sapiens) (UniProt Q86WV6); experiment: Agonist activity at STING in human THP-1 cells assessed as upregulation of IL-6/JAK/STAT3 signaling pathway by GSEA; assay type: cell-based; settings: filed as agonist
[5] = biological target: Stimulator of interferon genes protein (Homo sapiens) (UniProt Q86WV6); experiment: Agonist activity at STING in human THP-1 cells assessed as increase in LC3-II protein level incubated for 4 hrs by Western blotting analysis; assay type: cell-based; settings: filed as agonist, dose 5-40 µM
THP-1 = experiment: Upregulation of IRF3 phosphorylation in STING-knockout human THP-1 cells at 20 uM measured for 4 hrs by Western blotting analysis; assay type: functional, cell-based
[6] = biological target: Stimulator of interferon genes protein (Homo sapiens) (UniProt Q86WV6); experiment: Agonist activity at STING in human THP-1 cells assessed as increase in IFNB mRNA level at 20 uM measured for 4 hrs by qPCR analysis; assay type: cell-based; settings: filed as agonist
MC-38 [7] = experiment: Antitumor activity against mouse MC38 cells allografted in C57/BL6 mouse assessed as increase in CD8+ T cells in tumor tissue at 300 ug, IT administered every 2 days by flow cytometry analysis (reference value: 4.10%); assay type: functional; settings: dose 300 µg
B16-F10 = experiment: Antitumor activity against mouse B16-F10 cells allografted in C57/BL6 mouse assessed as reduction in tumor growth at 300 ug, IT administered every 2 days; assay type: functional, cell-based; settings: dose 300.0 µg
MC-38 [8] = experiment: Antitumor activity against mouse MC38 cells allografted in C57/BL6 mouse assessed as increase in CD3+ T cells in tumor tissue at 300 ug, IT administered every 2 days by flow cytometry analysis; assay type: functional, cell-based; settings: dose 300.0 µg
Human alphaherpesvirus 1 = experiment: Antiviral activity against HSV-1-GFP infected in mouse MC38 cells assessed as reduction in viral infection by fluorescent microscopy analysis; assay type: functional, organism-based

Sequence of Stimulator of interferon genes protein (Homo sapiens) (Q86WV6 whole entry): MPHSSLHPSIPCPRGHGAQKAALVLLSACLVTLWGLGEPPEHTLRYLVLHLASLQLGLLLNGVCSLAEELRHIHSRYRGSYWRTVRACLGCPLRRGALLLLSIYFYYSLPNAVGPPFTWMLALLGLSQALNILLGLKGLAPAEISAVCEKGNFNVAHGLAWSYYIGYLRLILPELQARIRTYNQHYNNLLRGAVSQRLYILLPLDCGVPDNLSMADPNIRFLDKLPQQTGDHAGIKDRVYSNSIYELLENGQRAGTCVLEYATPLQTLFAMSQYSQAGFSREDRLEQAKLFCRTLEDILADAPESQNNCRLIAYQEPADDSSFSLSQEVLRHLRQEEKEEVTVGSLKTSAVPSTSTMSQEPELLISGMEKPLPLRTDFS

With `CC(NCCC(c1ccccc1)c1ccccc1)c1ccccc1` (stereo unspecified) [FENDILINE] the Activity [1] was “Dose-Dependent Effect”, the Activity [2] was “Active” and the Activity [3] was “Non-Toxic”. For the same molecule, the Activity [4] was “Active”, the Activity [5] was “Dose-Dependent Effect” and the Activity (THP-1) was “inactive”. The Activity [6] was “Active”, the Activity (MC-38 [7]) was 14.7% and the Activity (B16-F10) was “Active”. The Activity (MC-38 [8]) was “Active” and the Activity (Human alphaherpesvirus 1) was “Active”.
